Laboratory results taken from patent publication US8053447B2, “11β-hydroxysteroid dehydrogenase type 1 active compounds” (High Point Pharmaceuticals, LLC, priority 2006, dated 2011).

target: T1, h-11βHSD1 (Homo sapiens, UniProt P28845); assay: 11βHSD1 enzyme assay (scintillation proximity assay, 3H-cortisone to 3H-cortisol); assay type: biochemical; conditions: extract of yeast transformed with h-11βHSD1; 120 nM 3H-cortisone, 4 mM β-NADPH, 60 min at 30° C., SPA
T1 construct: made in house
Description: Pharmacological Methods 11βHSD1 Enzyme Assay Materials
^3H-cortisone and anti-rabbit Ig coated scintillation proximity assay (SPA) beads were purchased from Amersham Pharmacia Biotech, β-NADPH was from Sigma and rabbit anti-cortisol antibodies were from Fitzgerald. An extract of yeast transformed with h-11βHSD1 (Hult et al., FEBS Lett, 441, 25 (1998)) was used as the source of enzyme. The test compounds were dissolved in DMSO (10 mM). All dilutions were performed in a buffer containing 50 mM TRIS-HCl (Sigma Chemical Co), 4 mM EDTA (Sigma Chemical Co), 0.1% BSA (Sigma Chemical Co), 0.01% Tween-20 (Sigma Chemical Co) and 0.005% bacitracin (Novo Nordisk A/S), pH=7.4. Optiplate 96 wells plates were supplied by Packard. The amount of ^3H-cortisol bound to the SPA beads was measured on TopCount NXT, Packard.
h-11βHSD1, 120 nM ^3H-cortisone, 4 mM β-NADPH, antibody (1:200), serial dilutions of test compound and SPA particles (2 mg/well) were added to the wells. The reaction was initiated by mixing the different components and was allowed to proceed under shaking for 60 min at 30° C. The reaction was stopped be the addition of 10 fold excess of a stopping buffer containing 500 μM carbenoxolone and 1 μM cortisone. Data was analysed using GraphPad Prism software.

T1 sequence (P28845 whole entry): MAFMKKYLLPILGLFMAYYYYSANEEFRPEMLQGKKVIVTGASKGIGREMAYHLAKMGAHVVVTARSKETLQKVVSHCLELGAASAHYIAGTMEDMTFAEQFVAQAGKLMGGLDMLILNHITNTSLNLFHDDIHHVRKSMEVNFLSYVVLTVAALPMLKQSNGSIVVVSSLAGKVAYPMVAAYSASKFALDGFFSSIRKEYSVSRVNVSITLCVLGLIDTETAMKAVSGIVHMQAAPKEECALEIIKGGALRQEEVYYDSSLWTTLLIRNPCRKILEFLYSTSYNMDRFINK

First: O=C(NC1C2CC3CC(C2)CC1C3)c1ccc(OCC2CCC(O)CC2)cc1 (stereo not drawn) [Example 1f, 4-(4-Hydroxy-cyclohexyl-methoxy)-N-adamantan-2-yl-benzamide]
Second: O=C(NC1C2CC3CC(C2)CC1C3)c1ccc(OC2CCC(O)CC2)cc1 (stereo not drawn) [Example 1d, N-Adamantan-2-yl-4-(4-hydroxy-cyclohexyloxy)-benzamide]
The IC50 of the first is 6.2-fold higher: 465 nM for the first, 75 nM for the second.

First: O=C(c1ccc(N2[C@@H]3CC[C@H]2CC(Oc2ccccn2)C3)cc1)N1CCCC2CCCCC21 (stereo partly drawn) [Example 2h, (Octahydro-quinolin-1-yl)-{4-[(1S,5R)-3-(pyridin-2-yloxy)-8-aza-bicyclo[3.2.1]oct-8-yl]-phenyl}-methanone]
Second: O=C(c1ccc(O[C@H]2CC[C@@H](NS(=O)(=O)c3ccccn3)CC2)cc1)N1CCCC2CCCCC21 (stereo partly drawn) [Example 4c, Cis-Pyridine-2-sulfonic acid {4-[4-(octahydro-quinoline-1-carbonyl)-phenoxy]-cyclo-hexyl}-amide]
The IC50 of the first is 7-fold higher: 359 nM for the first, 51 nM for the second. The second is the more potent here.

Going from `O=C(NC1C2CC3CC(C2)CC1C3)c1ccc(N2CC3CC2CO3)cc1` (stereo not drawn) [Example H, 4-(2-Oxa-5-aza-bicyclo[2.2.1]hept-5-yl)-N-adamantan-2-yl-benzamide] to `O=C(NC1C2CC3CC(C2)CC1C3)c1ccc(OC2CCC(C(=O)O)CC2)cc1` (mixture of isomers) [Example 4a, Cis/trans 4-[4-adamantan-2-ylcarbamoyl)-phenoxy]-cyclohexanecarboxylic acid], the IC50 rises from 43 nM to 678 nM (16-fold).

Going from `O=C(NC1C2CC3CC(C2)CC1C3)c1ccc(OC2CCC(NC(=O)C3CC3)CC2)cc1` (mixture of isomers) [Example 2c, cis/trans-4-[4-(Cyclopropanecarbonyl-amino)-cyclohexyl-oxy]-N-adamantan-2-yl-benzamide] to `O=C(NC1C2CC3CC(C2)CC1C3)c1ccc(OC2CCC(On3cccn3)CC2)cc1` (stereo not drawn) [Example 2d, 4-[4-(Pyrazol-1-yloxy)-cyclohexyloxy]-N-adaman-tan-2-yl-benzamide], the IC50 rises from 118 nM to 180 nM (1.5-fold). The first is the more potent here.

Going from `O=C(O)C1CCC(Oc2ccc(C(=O)N3CCCC4CCCCC43)cc2)CC1` (stereo not drawn) [Example 3a, 4-[4-(Octahydro-quinoline-1-carbonyl)-phenoxy]-cyclohexanecarboxylic acid] to `O=C(O)C1CCC(Oc2ccc(C(=O)N3CC4CCC(CC4)C3)cc2)CC1` (stereo not drawn) [Example 2a, 4-[4-(3-Aza-bicyclo[3.2.2]-nonane-3-carbonyl)-phen-oxy]-cyclohexane carbox-ylic acid], the IC50 rises from 405 nM to 1450 nM (3.6-fold). The first is the more potent here.

Going from `CC1(C)CC2CC(C)(CN2C(=O)c2ccc(OC3CCC(C(=O)O)C3)cc2)C1` (stereo not drawn) [Example 8a, 3-[4-(1,3,3-Trimethyl-6-aza-bicyclo[3.2.1]octane-6-carbonyl)-phenoxy]-cyclopentane carboxylic acid] to `O=C(C1CC1)N1CCC(Oc2ccc(C(=O)N3CC4CCCC3C4)cc2)CC1` (stereo not drawn) [Example 4b, (6-Aza-bicyclo[3.2.1]oct-6-yl)-[4-(1-cyclopropane-carbonyl-piperidin-4-yloxy)-phenyl]-methanone], the IC50 rises from 604 nM to 2310 nM (3.8-fold).

Going from `CN(C(=O)c1ccc(OC2CCC(NS(=O)(=O)c3ccccn3)CC2)cc1)C1C2CC3CC1CC(O)(C3)C2` (stereo not drawn) [Example 7c, N-(5-Hydroxy-adamantan-2-yl)-N-methyl-4-[4-(pyridine-2-sulfonylamino)-cyclohexyl-oxy]-benzamide] to `CN(C(=O)c1ccc(OCC2CCN(S(=O)(=O)c3cn(C)cn3)CC2)cc1)C1C2CC3CC1CC(O)(C3)C2` (stereo not drawn) [Example 6f, N-(5-Hydroxy-adamantan-2-yl)-N-methyl-4-[1-(1-methyl-1H-imidazole-4-sulfonyl)-piperidin-4-ylmethoxy]-benzamide], the IC50 rises from 1120 nM to 2270 nM (2-fold).

`O=C(c1ccc(OC2CCN(C(=O)C3CC3)CC2)cc1)N1CC2CCC(CC2)C1` [Example B, (3-Aza-bicyclo[3.2.2]non-3-yl)-[4-(1-cyclopropane-carbonyl-piperidin-4-yloxy)-phenyl]-methanone] and `O=C(c1ccc(OC2CCN(C(=O)c3ccc(Cl)nc3)C2)cc1)N1CC2CCC(CC2)C1` (stereo not drawn) [Example G, {3-[4-(3-Aza-bicyclo[3.2.2]nonane-3-carbonyl)-phenoxy]-pyrrolidin-1-yl}-(6-chloro-pyridin-3-yl)-methanone] are within 1.5-fold of each other in IC50: 1350 nM for the first, 1180 nM for the second.

Going from `O=C(NC1C2CC3CC(C2)CC1C3)c1ccc(OC2CCC(COc3ccccn3)CC2)cc1` (stereo not drawn) [Example E, 4-[4-(Pyridin-2-yl-oxy-methyl)-cyclohexyloxy]-N-adamantan-2-yl-benzamide] to `C=CCOC(=O)c1ccc(OCC2CCC(Oc3ccc(C(=O)NC4C5CC6CC(C5)CC4C6)cc3)CC2)cc1` (stereo not drawn) [Example 4e, 4-{4-[4-(Adamantan-2-yl-carbamoyl)-phenoxy]-cyclo-hexylmethoxy}-benzoic acid allyl ester], the IC50 rises from 295 nM to 482 nM (1.6-fold).

`CC(C)CC(=O)N1CCC(Oc2ccc(C(=O)NC3C4CC5CC(C4)CC3C5)cc2)CC1` (stereo not drawn) [Example 2b, 4-[1-(3-Methyl-butyryl)-piperidin-4-yloxy]-N-ada-mantan-2-yl-benzamide] and `Cc1c[nH]c(SCC2CCC(Oc3ccc(C(=O)NC4C5CC6CC(C5)CC4C6)cc3)CC2)n1` (stereo not drawn) [Example 1e, N-Adamantan-2-yl-4-[4-(4-methyl-1H-imidazol-2-yl-sulfanylmethyl)-cyclo-hexyloxy]-benzamide] are within 1.5-fold of each other in IC50: 284 nM for the first, 190 nM for the second.

`O=C(O)c1ccc(S(=O)(=O)N2CCC(COc3ccc(C(=O)N4CCCC5CCCCC54)cc3)CC2)cc1` (stereo not drawn) [Example 9f, 4-{4-[4-(Octahydro-quinoline-1-carbonyl)-phenoxymethyl]-piperidine-1-sulfonyl}-benzoic acid] and `O=C(c1ccc(OCC2CCN(S(=O)(=O)c3ccccn3)CC2)cc1)N1CCCC2CCCCC21` (stereo not drawn) [Example F, (Octahydro-quinolin-1-yl)-{4-[1-(pyridine-2-sulfonyl)-piperidin-4-ylmethoxy]-phenyl}-methanone] are within 1.5-fold of each other in IC50: 163 nM for the first, 134 nM for the second.

`O=C(NC1C2CC3CC(C2)CC1C3)c1ccc(N2[C@@H]3CC[C@H]2CC(Oc2ccccn2)C3)cc1` (stereo partly drawn) [Example 3h, 4-[(1S,5R)-3-(Pyridin-2-yloxy)-8-aza-bicyclo[3.2.1]oct-8-yl]-N-adamantan-2-yl-benzamide] and `O=C(NC1CCC(Oc2ccc(C(=O)N3C4CCC3CC(O)C4)cc2)CC1)C1CC1` (stereo not drawn) [Example C, Cyclopropanecarboxylic acid {4-[4-(3-hydroxy-8-aza-bicyclo[3.2.1]octane-8-carbonyl)-phenoxy]-cyclohexyl}-amide] are within 1.5-fold of each other in IC50: 976 nM for the first, 1070 nM for the second.

Compared with `CC(C)NC(=O)N1CCC(COc2ccc(C(=O)N(C)C3C4CC5CC3CC(O)(C5)C4)cc2)CC1` (stereo not drawn) [Example 5f, 4-{4-[(5-Hydroxy-adamantan-2-yl)-methyl-carbamoyl]-phenoxy-methyl}-piperidine-1-carboxylic acid isopropyl-amide], `CCS(=O)(=O)N1CCC(COc2ccc(C(=O)N3CCCC4CCCCC43)cc2)CC1` (stereo not drawn) [Example 3f, [4-(1-Ethanesulfonyl-piperidin-4-yl-methoxy)-phenyl]-(octahydro-quinolin-1-yl)-methanone] is 6.6-fold lower in IC50: 1800 nM for the first, 271 nM for the second. The second is the more potent here.

`Cn1cnc(S(=O)(=O)N2CCC(COc3ccc(C(=O)N4CCCC5CCCCC54)cc3)CC2)c1` (stereo not drawn) [Example 2f, {4-[1-(1-Methyl-1H-imidazole-4-sulfonyl)-piperidin-4-yl-methoxy]-phenyl}-(octahydro-quinolin-1-yl)-methanone] gave an IC50 of 134 nM.
